Results taken from patent US4272437A, “Antibacterial agents, and 4-thio azetidinone intermediates” (priority 1979, dated 1981).
Values after ≈ are worked out from the molar mass of the structure shown. Counter-ions that a name gives are not always drawn. Like-named read-outs stand apart in the source and are kept apart here.

Legend:
[1] = system: Proteus rettgeri A21203; assay: MIC, tube dilution, Proteus rettgeri A21203; type: cell-based; settings: Providencia rettgeri, overnight 37° C., read-out: Minimum Inhibitory Concentration (M.I.C.)
Text: (§1) Representative compounds of the present invention were subjected to in vitro antibiotic screening against a variety of microorganisms.

[2] = system: Staph. aureus A-9537; assay: MIC, tube dilution, Staphylococcus aureus A9537; type: cell-based; settings: Staphylococcus aureus, A9537, Staph. aureus A9537; overnight 37° C., Nutrient Broth; read-out: Minimum Inhibitory Concentration (M.I.C.)
Text: as §1

[3] = system: E. coli A-20341-1; assay: MIC, tube dilution, Escherichia coli A20341-1; type: cell-based
Text: as §1

[4] = system: Pr. morganii A-15153; assay: MIC, tube dilution, Proteus morganii A15153; type: cell-based; settings: Morganella morganii, A15153, Proteus morganii A15153; overnight 37° C.; read-out: Minimum Inhibitory Concentration (M.I.C.)
Text: as §1

[5] = system: Proteus vulgaris A21559; assay: MIC, tube dilution, Proteus vulgaris A21559; type: cell-based; settings: Proteus vulgaris
Text: as §1

[6] = system: Klebsiella species A20468; assay: MIC, tube dilution, Klebsiella species A20468; type: cell-based; settings: Klebsiella species (K. pneumoniae) A20468; overnight 37° C.; read-out: Minimum Inhibitory Concentration (M.I.C.)
Text: as §1

[7] = system: K. pneumoniae A-15130; assay: MIC, tube dilution, Klebsiella pneumoniae A15130; type: cell-based; settings: Klebsiella pneumoniae, A15130, K. pneumoniae A15130; overnight 37° C.; read-out: Minimum Inhibitory Concentration (M.I.C.)
Text: as §1

[8] = system: E. coli A-15119; assay: MIC, tube dilution, Escherichia coli A15119; type: cell-based; settings: Escherichia coli, A15119, E. coli A15119; overnight 37° C.; read-out: Minimum Inhibitory Concentration (M.I.C.)
Text: as §1

[9] = system: Str. pneumoniae A-9585; assay: MIC, tube dilution, Streptococcus pneumoniae A9585; type: cell-based; settings: Streptococcus pneumoniae, A9585, Str. pneumoniae A9585; overnight 37° C., Nutrient Broth; read-out: Minimum Inhibitory Concentration (M.I.C.)
Text: as §1

[10] = system: Ser. marcescens A-20019; assay: MIC, tube dilution, Serratia marcescens A20019; type: cell-based; settings: Serratia marcescens, A20019, Serratia marcescens A20019; overnight 37° C.; read-out: Minimum Inhibitory Concentration (M.I.C.)
Text: as §1

[11] = system: Str. faecalis A-20688; assay: MIC, tube dilution, Streptococcus faecalis A20688; type: cell-based; settings: Enterococcus faecalis, A20688, Str. faecalis A20688; overnight 37° C.; read-out: Minimum Inhibitory Concentration (M.I.C.)
Text: as §1

[12] = system: Pr. mirabilis A-9900; assay: MIC, tube dilution, Proteus mirabilis A9900; type: cell-based; settings: Proteus mirabilis, A9900, Proteus mirabilis A9900; overnight 37° C.; read-out: Minimum Inhibitory Concentration (M.I.C.)
Text: as §1

[13] = system: Ent. cloacae A-9656; assay: MIC, tube dilution, Enterobacter cloacae A9656; type: cell-based; settings: overnight 37° C., read-out: Minimum Inhibitory Concentration (M.I.C.)
Text: as §1

[14] = system: Ps. aeruginosa A-9843A; assay: MIC, tube dilution, Pseudomonas aeruginosa A9843A; type: cell-based; settings: Pseudomonas aeruginosa, A9843A, read-out: Minimum Inhibitory Concentration (M.I.C.), Pseudomonas aeruginosa A9843A; overnight 37° C.
Text: as §1

[15] = system: Ent. cloacae A-9659; assay: MIC, tube dilution, Enterobacter cloacae A9659; type: cell-based; settings: Enterobacter cloacae, A9659, Enterobacter cloacae A9659; overnight 37° C.; read-out: Minimum Inhibitory Concentration (M.I.C.)
Text: as §1

[16] = system: Ps. aeruginosa A-21213; assay: MIC, tube dilution, Pseudomonas aeruginosa A21213; type: cell-based; settings: overnight 37° C., read-out: Minimum Inhibitory Concentration (M.I.C.)
Text: as §1

[17] = system: Staph. aureus (Meth-Res) A-15097; assay: MIC, tube dilution, Staphylococcus aureus A15097 (Meth-Res); type: cell-based; settings: Staphylococcus aureus, overnight 37° C.
Text: as §1

[18] = system: Staph. aureus A-9537 and 50% serum; assay: MIC, tube dilution, Staph. aureus A9537 + 50% serum; type: cell-based, Staphylococcus aureus; settings: Staphylococcus aureus, overnight 37° C., read-out: Minimum Inhibitory Concentration (M.I.C.)
Text: as §1

[19] = system: Staph. aureus (Pen-Res) A-9606; assay: MIC, tube dilution, Staphylococcus aureus A9606 (Pen-Res); type: cell-based; settings: Staphylococcus aureus, overnight 37° C.
Text: as §1

[20] = system: Str. pyogenes A-9604; assay: MIC, tube dilution, Streptococcus pyogenes A9604; type: cell-based; settings: Streptococcus pyogenes, A9604, Str. pyogenes A9604; overnight 37° C., Nutrient Broth; read-out: Minimum Inhibitory Concentration (M.I.C.)
Text: as §1

[21] = A21203, Proteus rettgeri A21203
[22] = Escherichia coli, A203411, E. coli A20341-1; overnight 37° C.; read-out: Minimum Inhibitory Concentration (M.I.C.)
[23] = A21559, Proteus vulgaris A21559, overnight 37° C., read-out: Minimum Inhibitory Concentration (M.I.C.)
[24] = Enterobacter cloacae, A9656, Enterobacter cloacae A9656
[25] = Pseudomonas aeruginosa, A21213, Pseudomonas aeruginosa A21213
[26] = Staph. aureus A15097 (Meth-Res), read-out: Minimum Inhibitory Concentration (M.I.C.)
[27] = Staph. aureus A9606 (Pen-Res), read-out: Minimum Inhibitory Concentration (M.I.C.)
[28] = Escherichia coli, A203411; E. coli A20341-1; overnight 37° C.; read-out: Minimum Inhibitory Concentration (M.I.C.)
[29] = A21559, read-out: Minimum Inhibitory Concentration (M.I.C.)
[30] = read-out: Minimum Inhibitory Concentration (M.I.C.), Staph. aureus A15097 (Meth-Res)
[31] = read-out: Minimum Inhibitory Concentration (M.I.C.), Staph. aureus A9606 (Pen-Res)

| SMILES | MIC [1, 21] | MIC [2] | MIC [3, 22] | MIC [4] | MIC [5, 23] | MIC [6] | MIC [7] | MIC [8] | MIC [9] | MIC [10] | MIC [11] | MIC [12] | MIC [13, 24] | MIC [14] | MIC [15] | MIC [16, 25] | MIC [17, 26] | MIC [18] | MIC [19, 27] | MIC [20] | also measured |
| --- | --- | --- | --- | --- | --- | --- | --- | --- | --- | --- | --- | --- | --- | --- | --- | --- | --- | --- | --- | --- | --- |
| CC1=C(C(=O)O)N2C(=O)[C@H](CNC=O)[C@H]2S1 (relative stereo) [Example 92, 6-Formamidomethyl-2-methylpenem-3-carboxylic acid, sodium and potassium salts] | 32 µg/mL | 8 µg/mL | 32 µg/mL | 63 µg/mL | 32 µg/mL | 63 µg/mL | 63 µg/mL | 32 µg/mL | 0.5 µg/mL | 63 µg/mL | > 63 µg/mL | 32 µg/mL | 63 µg/mL | > 63 µg/mL | 63 µg/mL | > 63 µg/mL | 32 µg/mL | 32 µg/mL | 16 µg/mL | 0.5 µg/mL | – |
| CC[C@H](O)[C@H]1C(=O)N2C(C(=O)O)=C(C)S[C@H]12 (relative stereo) [Example 93, (1'S,5R,6S, and 1'R,5S,6R) 6-(1'--Hydroxy-1'-propyl)-2-methylpenem-3-carboxylic acid, sodium salt (isomer C)] | – | > 125 µg/mL | – | > 125 µg/mL | – | > 125 µg/mL | > 125 µg/mL | > 125 µg/mL | > 125 µg/mL | > 125 µg/mL | > 125 µg/mL | > 125 µg/mL | – | > 125 µg/mL | > 125 µg/mL | – | – | > 63 µg/mL | – | > 125 µg/mL | MIC ([1]; Proteus rettgeri A21203): > 125 µg/mL; MIC [3, 28]: > 125 µg/mL; MIC [5, 29]: > 125 µg/mL; MIC ([13]; Enterobacter cloacae A9656): > 125 µg/mL; MIC ([16]; Pseudomonas aeruginosa A21213): > 125 µg/mL; MIC [17, 30]: > 125 µg/mL; MIC [19, 31]: > 125 µg/mL |
| CC[C@@H](O)[C@H]1C(=O)N2C(C(=O)O)=C(C)S[C@H]12 (relative stereo) [Example 94, (1'R,5R,6S and 1'S,5S,6R) 6-(1'-Hydroxy-1'-propyl)-2-methylpenem-3carboxylic acid, sodium and potassium salts (isomer B)] | – | 32 µg/mL | – | > 125 µg/mL | – | > 125 µg/mL | > 125 µg/mL | > 125 µg/mL | 1 µg/mL | > 125 µg/mL | > 125 µg/mL | > 125 µg/mL | – | > 125 µg/mL | > 125 µg/mL | – | – | > 63 µg/mL | 32 µg/mL | 16 µg/mL | MIC ([1]; Proteus rettgeri A21203): > 125 µg/mL; MIC [3, 28]: > 125 µg/mL; MIC [5, 29]: > 125 µg/mL; MIC ([13]; Enterobacter cloacae A9656): > 125 µg/mL; MIC ([16]; Pseudomonas aeruginosa A21213): > 125 µg/mL; MIC [17, 30]: > 125 µg/mL |
| CC1=C(C(=O)O)N2C(=O)[C@H]([C@H](O)Cc3ccccc3)[C@H]2S1 (relative stereo) [Example 95, (1'R,5R,6S and 1'S,5S,6R) 6-(1'-Hydroxy-2'-phenylethyl)-2-methylpenem-3-carboxylic acid (isomer B)] | – | 125 µg/mL (≈ 409 µM) | – | > 125 µg/mL | – | > 125 µg/mL | > 125 µg/mL | > 125 µg/mL | 32 µg/mL (≈ 105 µM) | > 125 µg/mL | > 125 µg/mL | > 125 µg/mL | – | > 125 µg/mL | > 125 µg/mL | – | – | > 63 µg/mL | – | 32 µg/mL (≈ 105 µM) | MIC ([1]; Proteus rettgeri A21203): > 125 µg/mL; MIC [3, 28]: > 125 µg/mL; MIC [5, 29]: > 125 µg/mL; MIC ([13]; Enterobacter cloacae A9656): > 125 µg/mL; MIC ([16]; Pseudomonas aeruginosa A21213): > 125 µg/mL; MIC [17, 30]: > 125 µg/mL; MIC [19, 31]: > 125 µg/mL |
| CC1=C(C(=O)O)N2C(=O)[C@H]([C@H]3COC(C)(C)O3)[C@H]2S1 (relative stereo) [Example 104, (4'S,5R,6S and 4'R,5S,6R) 6-(2',2'-Dimethyl-1',3'-dioxolan-4'-yl)-2-methylpenem-3-carboxylic Acid (Isomer B)] | 63 µg/mL (≈ 221 µM) | 63 µg/mL (≈ 221 µM) | > 63 µg/mL | > 63 µg/mL | > 63 µg/mL | > 63 µg/mL | > 63 µg/mL | > 63 µg/mL | 16 µg/mL (≈ 56.1 µM) | > 63 µg/mL | 63 µg/mL (≈ 221 µM) | > 63 µg/mL | > 63 µg/mL | 63 µg/mL (≈ 221 µM) | > 63 µg/mL | 63 µg/mL (≈ 221 µM) | 63 µg/mL (≈ 221 µM) | > 32 µg/mL | 63 µg/mL (≈ 221 µM) | 32 µg/mL (≈ 112 µM) | – |
| COCOC[C@H](O)[C@H]1C(=O)N2C(C(=O)O)=C(C)S[C@H]12 (relative stereo) [Example 105, (1'R,5R,6S and 1'S,5S,6R) 6-(1'-Hydroxy-2'-methoxymethoxy-2'-ethyl)-2-methylpenem-3-carboxylic acid (Isomer C)] | 32 µg/mL (≈ 111 µM) | > 8 µg/mL | 63 µg/mL (≈ 218 µM) | > 63 µg/mL | > 63 µg/mL | > 63 µg/mL | 63 µg/mL (≈ 218 µM) | 63 µg/mL (≈ 218 µM) | 4 µg/mL (≈ 13.8 µM) | > 63 µg/mL | > 63 µg/mL | > 63 µg/mL | 63 µg/mL (≈ 218 µM) | 63 µg/mL (≈ 218 µM) | 63 µg/mL (≈ 218 µM) | 63 µg/mL (≈ 218 µM) | > 63 µg/mL | > 32 µg/mL | 63 µg/mL (≈ 218 µM) | 4 µg/mL (≈ 13.8 µM) | – |
